Measurements reported in US20150322083A1, “(THIENO[2,3-b][1,5]BENZOXAZEPIN-4-YL)PIPERAZIN-1-YL COMPOUNDS AS SELECTIVE 5-HT2A INVERSE AGONISTS” (Eli Lilly and Company, priority 2014, published 2015).

Assays:
5-HT5 = 5-HT5 (Homo sapiens, UniProt P47898); test: 5-HT5 binding
Experimental: Curves are evaluated using a 4-parameter logistic nonlinear equation to obtain the concentration of competitor causing 50% inhibition of radioligand binding (IC50). Equilibrium dissociation constants (Ki) are calculated according to the equation Ki=IC50/(1+L/Kd), where L equals the concentration of radioligand used in the experiment and Kd equals the equilibrium dissociation constant of the radioligand for the receptor, determined from standard saturation analysis or homologous competition experiments. Reported values for Ki, where n values are indicated, are shown as geometric mean±the standard error of the mean (SEM), with the number of replicate determinations indicated by n. Geometric means are calculated by the equation GeoMean=10̂(Average(log Ki 1+log Ki 2+ . . . log Ki n)/[…]).
Further, the compounds of the invention may be tested in binding assays and functional activity assays by well known methods for other physiologically important receptors such as, but not limited to, the hERG channel, other serotonin receptors (specifically 5-HT1B receptors, lack of agonist activity at 5-HT2B receptors, 5-HT2C, 5-HT5, 5-HT6, and 5-HT7 receptors), dopaminergic receptors (specifically D1, D2, and D3), H1 receptors, GABAA receptors, adrenergic receptors and monoamine transporters.

[1] = tested on: sleep and locomotor activity of rats; test: Sleep and behavioral monitoring in rats (EEG, EMG, motion); assay type: in vivo; conditions: rat; for Rebound Insomnia, Adj. Mean: NREM + REM sleep in 7th-9th hours post-treatment; for Rebound Insomnia, Adj. Mean / REM inhibition, Adj. Mean / Cumulative NREM sleep, Adj. Mean / Cumulative Total sleep, Adj. Mean / Locomotor Activity Intensity, Adj. Mean: difference from vehicle; for REM inhibition, Adj. Mean: REM sleep in first 12 hr. post-treatment; for Average Sleep Bout, Adj. Mean / Longest Sleep Bout / Cumulative NREM sleep, Adj. Mean / Cumulative Total sleep, Adj. Mean / Locomotor Activity Intensity, Adj. Mean: first 6 hr. post-treatment
Text: Sleep and behavioral monitoring in rats: The compounds of the present invention may be tested in rats for their ability to increase the amount of sleep or decrease sleep interruption or both without undesired effects such as inhibition of REM sleep, waking motor impairment, and/or rebound insomnia. Test animals are continuously monitored by electro-encephalograms (EEG), electromyograms (EMG), and motion to measure cumulative nonREM sleep, cumulative total sleep, average sleep bout duration, longest sleep bout duration, rebound insomnia, REM sleep inhibition and locomotor activity intensity during wakefulness. Methods for such studies are known in the art (see for example methods described in Edgar D M, Seidel W F. Modafinil induces wakefulness without intensifying motor activity or subsequent rebound hypersomnolence in the rat. J Pharmacology & Experimental Therapeutics 1997; 283: 757-769; van Gelder R N, Edgar D M, Dement W C. Real-time automated sleep scoring: validation of a microcomputer-based system for mice. Sleep 1991, 14: 48-55; and Gross B A, Walsh C M, Turakhia A A, Booth V, Mashour G A, Poe G R. Open-source logic-based automated sleep scoring software using electrophysiological recordings in rats. J Neurosci Methods. 2009; 184(1):10-8.) Studies are conducted as follows:
Animal preparation. Adult, male Wistar rats (approximately 270-300 g at time of surgery) are surgically fitted for chronic recording of EEG, EMG, and motion as follows: Rats are surgically prepared with a cranial implant consisting of four stainless steel screws for EEG recording (two frontal [3.9 mm anterior from bregma, and ±2.0 mm mediolaterally] and two occipital [6.4 mm posterior from bregma, ±5.5 mm mediolaterally]), and with two Teflon-coated stainless steel wires for EMG recording (positioned under the nuchal trapezoid muscles). All leads are soldered to a miniature connector (Microtech, Boothwyn, Pa.) prior to surgery. The implant assembly is affixed to the skull by the combination of the stainless steel EEG recording screws, cyanoacrylate applied between the implant connector and skull, and dental acrylic. Locomotor activity is monitored via a miniature transmitter (Minimitter PDT4000G, Philips Respironics, Bend, Oreg.) surgically placed into the abdomen. At least 3 weeks are allowed for recovery.
Recording environment. Each rat is housed individually within a microisolator cage modified with an inserted polycarbonate filter-top riser to allow more vertical headroom. A flexible cable that minimally restricts movement is connected at one end to a commutator afixed to the cage top and at the other end to the animal's cranial implant. Each cage is located within separate, ventilated compartments of a stainless steel sleep-wake recording chamber. Food and water are available ad libitum and the ambient temperature is maintained at about 23±1° C. A 24-hr light-dark cycle (LD 12:12) using fluorescent light is maintained throughout the study. Relative humidity averages approximately 50%. Animals are undisturbed for at least 30 hrs before and after each treatment.
Study design and dosing. The vehicle (placebo, methylcellulose 15 centipoise 0.25% in water) or one of the test compound dose levels is administered orally at 1 mL/kg pseudo-randomly such that no rat receives the same treatment twice, and no rat receives more than two of the 8 treatments in any one study. Each rat is removed from its cage for about a minute to be weighed and treated. At least 6 days “washout” period precede and follow each treatment.
Data collection. […]

[2] = PO, 6 hr. after treatment, 4 parameter logistic regression

Sequence of 5-HT5 (P47898 whole entry, species assumed): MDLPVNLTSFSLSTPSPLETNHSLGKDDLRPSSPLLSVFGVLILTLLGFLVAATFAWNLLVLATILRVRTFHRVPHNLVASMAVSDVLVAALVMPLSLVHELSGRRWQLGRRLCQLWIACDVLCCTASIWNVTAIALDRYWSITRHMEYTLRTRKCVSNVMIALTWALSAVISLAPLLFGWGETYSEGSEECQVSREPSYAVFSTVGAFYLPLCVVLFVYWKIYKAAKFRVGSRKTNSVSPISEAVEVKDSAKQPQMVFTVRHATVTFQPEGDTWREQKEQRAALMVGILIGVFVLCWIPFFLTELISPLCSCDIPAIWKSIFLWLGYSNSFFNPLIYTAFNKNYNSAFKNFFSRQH

Cc1ccc2c(c1)Oc1sc(SC(C)C)cc1C(N1CCN(CC(C)(C)C(=O)O)CC1)=N2 [Example 1, 3-[4-(2-isopropylsulfanyl-8-methyl-thieno[2,3-b][1,5]benzoxazepin-4-yl)piperazin-1-yl]-2,2-dimethyl-propanoic acid]
Ki (5-HT5): 6.71 µM | Rebound Insomnia, Adj. Mean ([1]; 0.1 mg/kg PO): -0.4 min | REM inhibition, Adj. Mean ([1]; 0.1 mg/kg PO): 0.5 min | Average Sleep Bout, Adj. Mean ([1]; 0.1 mg/kg PO): 1.09 n-fold increase over vehicle controls | Longest Sleep Bout ([1]; 0.1 mg/kg PO): 0.85 n-fold increase over vehicle controls | Cumulative NREM sleep, Adj. Mean ([1]; 0.1 mg/kg PO): 14.6 min | Cumulative Total sleep, Adj. Mean ([1]; 0.1 mg/kg PO): 13.1 min | Locomotor Activity Intensity, Adj. Mean ([1]; 0.1 mg/kg PO): −1.31 LMA counts per minute of EEG-defined wakefulness | Rebound Insomnia, Adj. Mean ([1]; 0.25 mg/kg PO): -1.0 min | REM inhibition, Adj. Mean ([1]; 0.25 mg/kg PO): 1.4 min | Average Sleep Bout, Adj. Mean ([1]; 0.25 mg/kg PO): 1.32 n-fold increase over vehicle controls | Longest Sleep Bout ([1]; 0.25 mg/kg PO): 1.49 n-fold increase over vehicle controls | Cumulative NREM sleep, Adj. Mean ([1]; 0.25 mg/kg PO): 17.8 min | Cumulative Total sleep, Adj. Mean ([1]; 0.25 mg/kg PO): 21.1 min | Locomotor Activity Intensity, Adj. Mean ([1]; 0.25 mg/kg PO): −1.22 LMA counts per minute of EEG-defined wakefulness | Rebound Insomnia, Adj. Mean ([1]; 0.5 mg/kg PO): 4.4 min | REM inhibition, Adj. Mean ([1]; 0.5 mg/kg PO): 6.6 min | Average Sleep Bout, Adj. Mean ([1]; 0.5 mg/kg PO): 1.75 n-fold increase over vehicle controls | Longest Sleep Bout ([1]; 0.5 mg/kg PO): 1.79 n-fold increase over vehicle controls | Cumulative NREM sleep, Adj. Mean ([1]; 0.5 mg/kg PO): 24.1 min | Cumulative Total sleep, Adj. Mean ([1]; 0.5 mg/kg PO): 28.2 min | Locomotor Activity Intensity, Adj. Mean ([1]; 0.5 mg/kg PO): −1.49 LMA counts per minute of EEG-defined wakefulness | Rebound Insomnia, Adj. Mean ([1]; 1 mg/kg PO): 1.5 min | REM inhibition, Adj. Mean ([1]; 1 mg/kg PO): 5.6 min | Average Sleep Bout, Adj. Mean ([1]; 1 mg/kg PO): 1.71 n-fold increase over vehicle controls | Longest Sleep Bout ([1]; 1 mg/kg PO): 1.89 n-fold increase over vehicle controls | Cumulative NREM sleep, Adj. Mean ([1]; 1 mg/kg PO): 30.0 min | Cumulative Total sleep, Adj. Mean ([1]; 1 mg/kg PO): 31.4 min | Locomotor Activity Intensity, Adj. Mean ([1]; 1 mg/kg PO): −4.04 LMA counts per minute of EEG-defined wakefulness | Rebound Insomnia, Adj. Mean ([1]; 3 mg/kg PO): 8.8 min | REM inhibition, Adj. Mean ([1]; 3 mg/kg PO): -1.4 min | Average Sleep Bout, Adj. Mean ([1]; 3 mg/kg PO): 1.75 n-fold increase over vehicle controls | Longest Sleep Bout ([1]; 3 mg/kg PO): 2.17 n-fold increase over vehicle controls | Cumulative NREM sleep, Adj. Mean ([1]; 3 mg/kg PO): 31.5 min | Cumulative Total sleep, Adj. Mean ([1]; 3 mg/kg PO): 32.8 min | Locomotor Activity Intensity, Adj. Mean ([1]; 3 mg/kg PO): −1.86 LMA counts per minute of EEG-defined wakefulness | Rebound Insomnia, Adj. Mean ([1]; 10 mg/kg PO): 2.5 min | REM inhibition, Adj. Mean ([1]; 10 mg/kg PO): -4.4 min | Average Sleep Bout, Adj. Mean ([1]; 10 mg/kg PO): 2.01 n-fold increase over vehicle controls | Longest Sleep Bout ([1]; 10 mg/kg PO): 2.29 n-fold increase over vehicle controls | Cumulative NREM sleep, Adj. Mean ([1]; 10 mg/kg PO): 38.3 min | Cumulative Total sleep, Adj. Mean ([1]; 10 mg/kg PO): 39.1 min | Locomotor Activity Intensity, Adj. Mean ([1]; 10 mg/kg PO): −1.90 LMA counts per minute of EEG-defined wakefulness | Rebound Insomnia, Adj. Mean ([1]; 20 mg/kg PO): 2.1 min | REM inhibition, Adj. Mean ([1]; 20 mg/kg PO): -9.3 min | Average Sleep Bout, Adj. Mean ([1]; 20 mg/kg PO): 1.88 n-fold increase over vehicle controls | Longest Sleep Bout ([1]; 20 mg/kg PO): 1.90 n-fold increase over vehicle controls | Cumulative NREM sleep, Adj. Mean ([1]; 20 mg/kg PO): 40.2 min | Cumulative Total sleep, Adj. Mean ([1]; 20 mg/kg PO): 38.0 min | Locomotor Activity Intensity, Adj. Mean ([1]; 20 mg/kg PO): −0.59 LMA counts per minute of EEG-defined wakefulness | apparent LMI impairment (in words) ([1]; 1 mg/kg PO): statistically significant at that dose | REM sleep inhibition versus threshold value of -10 min. (in words) ([1]; 20 mg/kg PO): exceeded the threshhold value | effect on cumulative NREM sleep time and cumulative total sleep time (in words) ([1]; PO): statistically significant increase | Estimated efficacy dose, Average sleep bout (1.5-fold increase) [1, 2]: 0.33 mg/kg | Estimated efficacy dose, Longest sleep bout (1.75-fold increase) [1, 2]: 0.45 mg/kg | Estimated efficacy dose, NREM accumulation = 30 min. [1, 2]: 1.5 mg/kg | Estimated efficacy dose, Total sleep accumulation = 25 min. [1, 2]: 0.39 mg/kg | rebound insomnia or REM sleep inhibition (in words) ([1]; PO, at up to 10 times the conservative efficacy dose): without statistically significant rebound insomnia or REM sleep inhibition
